# Key:
# HCV replicon cells = assay: HCV replicon FRET / luciferase assay; assay type: cell-based; settings: Hepatitis C virus, 50% reduction in FRET or luciferase activity, class symbols
# Procedure: FRET Assay Preparation. The HCV FRET screening assay was performed in 96-well cell culture plates. The FRET peptide (Anaspec, Inc.) (Taliani et al., Anal. Biochem. 1996, 240, 60-67) contains a fluorescence donor, EDANS, near one end of the peptide and an acceptor, DABCYL, near the other end. The fluorescence of the peptide is quenched by […] resonance energy transfer (RET) between the donor and the acceptor, but as the NS3 protease cleaves the peptide the products are released from RET quenching and the fluorescence of the donor becomes apparent. The assay reagent was made as follows: 5× cell Luciferase cell culture lysis reagent from Promega (#E153A) diluted to 1× with dH2O, NaCl added to 150 mM final, the FRET peptide diluted to 20 μM final from a 2 mM stock.
# To prepare plates, HCV replicon cells, with or without a Renilla luciferase reporter gene, were trypsinized and plated in a 96-well plate with titrated test compounds added in columns 3 through 12; columns 1 and 2 contained a control compound (HCV control inhibitor), and the bottom row contained cells with DMSO only. The plates were then placed in a CO2 incubator at 37° C.
# Assays. Subsequent to addition of the test compounds described above (FRET Assay Preparation), at various times the plate was removed and Alamar blue solution (Trek Diagnostics, #00-100) was added to measure cellular toxicity. After reading in a Cytoflour 4000 instrument (PE Biosystems), plates were rinsed with PBS and then used for FRET assay by the addition of 30 ul of the FRET peptide assay reagent described above (FRET Assay Preparation) per well. The plate was then placed into the Cytoflour 4000 instrument which had been set to 340 excite/490 emission, automatic mode for up to 20 cycles and the plate read in a kinetic mode. Typically, the signal to noise using an endpoint analysis after the reads was at least three-fold. Alternatively, after Alamar blue reading, plates were rinsed with PBS, then used for luciferase assay using the Promega Dual-Glo Luciferase Assay System or the Promega EnduRen Live Cell Substrate assay.
# Compound analysis was performed by quantification of the relative HCV replicon inhibition and the relative cytotoxicity values. To calculate cytoxicity values, the average Alamar Blue fluorescence signals from the control wells were set as 100% non-toxic. The individual signals in each of the compound test wells were then divided by the average control signal and multiplied by 100% to determine […]. To calculate the HCV replicon inhibition values, an average background value was obtained from the two wells containing the highest amount of HCV control inhibitor at the end of the assay period. These numbers were similar to those obtained from naïve Huh-7 cells. The background numbers were then subtracted from the average signal obtained from the control wells and this number was used as 100% activity. The individual signals in each of the compound test wells were then divided by the averaged control values after background subtraction and multiplied by 100% to determine percent activity. EC50 values were calculated as the concentration which caused a 50% reduction in FRET or luciferase activity. The two numbers generated for the compound plate, percent cytoxicity and percent activity, were used to determine compounds of interest for further analysis.
# HCV NS5B RdRp = target: T1, HCV NS5B RdRp (Hepatitis C virus genotype 1b, UniProt Q9WMX2); assay: HCV NS5B RdRp enzyme assay; assay type: biochemical; settings: HCV NS5B genotype 1b; standard or modified RdRp assay not given; class symbols
# T1 construct: The protein was expressed with an 18 amino acid C-terminal truncation to enhance the solubility; made in house; host or cells: E. coli BL21(DE3)
# Procedure: HCV NS5B RdRp cloning, expression, and purification. The cDNA encoding the NS5B protein of HCV, genotype 1b, was cloned into the pET21a expression vector. The protein was expressed with an 18 amino acid C-terminal truncation to enhance the solubility. The E. coli competent cell line BL21(DE3) was used for expression of the protein. Cultures were grown at 37° C. for ˜4 hours until the cultures reached an optical density of 2.0 at 600 nm. The cultures were cooled to 20° C. and induced with 1 mM […]. Fresh ampicillin was added to a final concentration of 50 μg/ml and the cells were grown overnight at 20° C.
# Cell pellets (3 L) were lysed for purification to yield 15-24 mgs of purified NS5B. The lysis buffer consisted of 20 mM Tris-HCl, pH 7.4, 500 mM NaCl, 0.5% triton X-100, 1 mM DTT, 1 mM EDTA, 20% glycerol, 0.5 mg/ml lysozyme, 10 mM MgCl2, 15 ug/ml deoxyribonuclease I, and Complete TM protease inhibitor tablets (Roche). After addition of the lysis buffer, frozen cell pellets were resuspended using a tissue homogenizer. To reduce the viscosity of the sample, aliquots of the lysate were sonicated on ice using a microtip attached to a Branson sonicator. The sonicated lysate was centrifuged at 100,000×g for 1 hr at 4° C. and filtered through a 0.2 μm filter unit (Corning).
# The protein was purified using two sequential chromatography steps: Heparin sepharose CL-6B and polyU sepharose 4B (Pharmacia). The chromatography buffers were identical to the lysis buffer but contained no lysozyme, deoxyribonuclease I, MgCl2 or protease inhibitor and the NaCl concentration of the buffer was adjusted according to the requirements for charging the protein onto the column. Each column was eluted with a NaCl gradient which varied in length from 5-50 column volumes depending on the column type. After the final chromatography step, the resulting purity of the enzyme is >90% based on SDS-PAGE analysis. The enzyme was aliquoted and stored at −80° C.
# Standard HCV NS5B RdRp enzyme assay. HCV RdRp genotype 1b assays were run in a final volume of 60 μl in 96 well plates (Corning 3600). The assay buffer is composed of 20 mM Hepes, pH 7.5, 2.5 mM KCl, 2.5 mM MgCl2, 1 mM DTT, 1.6 U RNAse inhibitor (Promega N2515), 0.01 mg/ml BSA (Sigma B6917), and 2% glycerol. All compounds were serially diluted (3-fold) in DMSO and diluted further in water such that the final concentration of DMSO in the assay was 2%. HCV RdRp genotype 1b enzyme was used at a final concentration of 28 nM. A polyA template was used at 6 nM, and a biotinylated oligo-dT12 primer was used at 180 nM final concentration. Template was obtained commercially (Amersham 27-4110). Biotinylated primer was prepared by Sigma Genosys. 3H-UTP was used at (0.29 μM total UTP). Reactions were initiated by the addition of enzyme, incubated at 30° C. for 60 min, and stopped by adding 25 μl of 50 mM EDTA containing SPA beads (4 μg/μl, Amersham RPNQ 0007). Plates were read on a Packard Top Count NXT after >1 hr incubation at room temperature.
# Modified HCV NS5B RdRp enzyme assay. A modified enzyme assay was performed essentially as described for the standard enzyme assay except for the following: The biotinylated oligo dT12 primer was precaptured on streptavidin-coated SPA beads by mixing primer and beads in assay buffer and incubating at room temperature for one hour. Unbound primer was removed after centrifugation. The primer-bound beads were resuspended in 20 mM Hepes buffer, pH 7.5 and used in the assay at final concentrations of 20 nM primer and […] beads. Order of addition in the assay: enzyme (1.75 nM) was added to diluted compound followed by the addition of a mixture of template (0.36 nM), 3H-UTP (0.6 μCi, 0.29 μM), and primer-bound beads, to initiate the reaction; concentrations given are final. Reactions were allowed to proceed for 4 hours at 30° C.
# IC50 values for compounds were determined using seven different [I]. […]
# T1 sequence (Q9WMX2 2420-2992): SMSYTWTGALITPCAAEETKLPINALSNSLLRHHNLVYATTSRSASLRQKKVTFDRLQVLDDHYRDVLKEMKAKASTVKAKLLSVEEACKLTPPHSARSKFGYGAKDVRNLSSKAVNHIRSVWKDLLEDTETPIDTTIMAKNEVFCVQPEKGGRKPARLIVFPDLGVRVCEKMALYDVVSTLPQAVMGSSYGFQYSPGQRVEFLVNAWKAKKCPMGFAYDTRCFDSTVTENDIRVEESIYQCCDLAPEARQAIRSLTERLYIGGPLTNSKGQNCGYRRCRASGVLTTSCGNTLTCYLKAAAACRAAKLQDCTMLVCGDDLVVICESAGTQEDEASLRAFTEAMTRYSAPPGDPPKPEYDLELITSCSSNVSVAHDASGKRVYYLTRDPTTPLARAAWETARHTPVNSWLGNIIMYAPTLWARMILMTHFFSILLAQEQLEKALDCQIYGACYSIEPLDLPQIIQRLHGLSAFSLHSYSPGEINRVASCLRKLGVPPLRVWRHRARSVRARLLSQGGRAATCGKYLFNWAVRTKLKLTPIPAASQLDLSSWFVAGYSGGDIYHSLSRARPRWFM
compound,measurement,setting,value
COc1ccc2c(c1)C1CC1(C(=O)N1CCC(c3noc4cc(F)ccc34)CC1)Cn1c-2c(C2CCCCC2)c2ccc(C(=O)N[S+]([O-])N(C)C)cc21 (centres unmarked),EC50,HCV replicon cells,2 to 500 nM
same,IC50,HCV NS5B RdRp,2 to 500 nM
COc1ccc2c(c1)C1CC1(C(=O)N1CCC(c3cc(-c4ccco4)n[nH]3)CC1)Cn1c-2c(C2CCCCC2)c2ccc(C(=O)NS(=O)(=O)N(C)C)cc21 (centres unmarked),EC50,HCV replicon cells,2 to 500 nM
same,IC50,HCV NS5B RdRp,2 to 500 nM
COc1ccc2c(c1)C1CC1(C(=O)N1CCC(c3nc4cc(C)ccc4[nH]3)CC1)Cn1c-2c(C2CCCCC2)c2ccc(C(=O)NS(=O)(=O)N(C)C)cc21 (centres unmarked),EC50,HCV replicon cells,2 to 500 nM
same,IC50,HCV NS5B RdRp,2 to 500 nM
COc1ccc(-c2cnn(C3CCN(C(=O)C45CC4c4cc(OC)ccc4-c4c(C6CCCCC6)c6ccc(C(=O)NS(=O)(=O)N(C)C)cc6n4C5)CC3)c2)cc1 (centres unmarked),EC50,HCV replicon cells,2 to 500 nM
same,IC50,HCV NS5B RdRp,2 to 500 nM
COc1ccc2c(c1)C1CC1(C(=O)N1CCC(n3cc(-c4ccc(Cl)cc4)cn3)CC1)Cn1c-2c(C2CCCCC2)c2ccc(C(=O)NS(=O)(=O)N(C)C)cc21 (centres unmarked),EC50,HCV replicon cells,2 to 500 nM
same,IC50,HCV NS5B RdRp,2 to 500 nM
COc1ccc2c(c1)C1CC1(C(=O)N1CCC(n3cc(-c4ccccc4)cn3)CC1)Cn1c-2c(C2CCCCC2)c2ccc(C(=O)NS(=O)(=O)N(C)C)cc21 (centres unmarked),EC50,HCV replicon cells,2 to 500 nM
same,IC50,HCV NS5B RdRp,2 to 500 nM
COc1ccc2c(c1)C1CC1(C(=O)N1CCC(n3cc(-c4ccccc4Cl)cn3)CC1)Cn1c-2c(C2CCCCC2)c2ccc(C(=O)NS(=O)(=O)N(C)C)cc21 (centres unmarked),EC50,HCV replicon cells,2 to 500 nM
same,IC50,HCV NS5B RdRp,2 to 500 nM
CCCc1noc(C2CCN(C(=O)C34CC3c3cc(OC)ccc3-c3c(C5CCCCC5)c5ccc(C(=O)NS(=O)(=O)N(C)C)cc5n3C4)CC2)n1 (centres unmarked),EC50,HCV replicon cells,2 to 500 nM
same,IC50,HCV NS5B RdRp,2 to 500 nM
CCOC(=O)c1coc(C2CCN(C(=O)C34CC3c3cc(OC)ccc3-c3c(C5CCCCC5)c5ccc(C(=O)NS(=O)(=O)N(C)C)cc5n3C4)CC2)n1 (centres unmarked),EC50,HCV replicon cells,2 to 500 nM
same,IC50,HCV NS5B RdRp,2 to 500 nM
CCc1nnc(C2CCN(C(=O)C34CC3c3cc(OC)ccc3-c3c(C5CCCCC5)c5ccc(C(=O)NS(=O)(=O)C(C)C)cc5n3C4)CC2)o1 (centres unmarked),EC50,HCV replicon cells,2 to 500 nM
same,IC50,HCV NS5B RdRp,2 to 500 nM
COc1ccc2c(c1)C1CC1(C(=O)N1CCC(c3cc4ccccc4o3)CC1)Cn1c-2c(C2CCCCC2)c2ccc(C(=O)NS(=O)(=O)C(C)C)cc21 (centres unmarked),EC50,HCV replicon cells,> 500 nM
same,IC50,HCV NS5B RdRp,2 to 500 nM
COc1ccc2c(c1)C1CC1(C(=O)N1CCC(c3c[nH]c4ccccc34)CC1)Cn1c-2c(C2CCCCC2)c2ccc(C(=O)NS(=O)(=O)C(C)C)cc21 (centres unmarked),EC50,HCV replicon cells,2 to 500 nM
same,IC50,HCV NS5B RdRp,2 to 500 nM
COc1ccc2c(c1)C1CC1(C(=O)N1CCC(c3nnc(C(C)C)o3)CC1)Cn1c-2c(C2CCCCC2)c2ccc(C(=O)NS(=O)(=O)C(C)C)cc21 (centres unmarked),EC50,HCV replicon cells,2 to 500 nM
same,IC50,HCV NS5B RdRp,2 to 500 nM
